Data as given in US20180172683A1, “METHODS FOR ANALYZING THE INTERACTION BETWEEN A TARGET PROTEIN AND A LIGAND” (UNIVERSITY OF SOUTHERN CALIFORNIA, priority 2015, published 2018).
Read-outs that look alike come from different tables or passages of the source. Peptide text beside a SMILES is read from it. * marks the point of attachment. Biotin = O=C1N[C@H]2[C@H](CS[C@H]2CCCCC(=O)*)N1

Tests used:
Bcl-xL [1] = molecular target: T1, Bcl-xL (Homo sapiens, UniProt Q07817); assay: Radiolabeled off-rate assay on immobilized Bcl-xL; assay type: binding
T1 construct: The gene for the first 209 amino acids of Bcl-xL; made in house; host or cells: E. coli BL21(DE3), pET24a vector
Text: Radiolabeled Off-Rate Assay. The DNA sequences coding for the peptides were ordered from Integrated DNA Technologies (IDT). Each DNA construct contained a T7 RNA Polymerase promoter, and a 5′ deletion mutant of the Tobacco Mosaic Virus (ΔTMV). The C-terminal portion of the peptides were elongated with a flexible serine-glycine linker (six amino acids long) and an HA tag. After gel purification using urea-PAGE, the DNA sequences were PCR amplified using Taq polymerase and in vitro transcribed into mRNA using T7 RNA polymerase. After transcription, the mRNA was urea-PAGE purified and resuspended in deionized water to a final concentration of 30 μM.
The samples were in vitro translated at 30° C. for 1 hour in the translation solution—150 mM KOAc, 750 μM MgCl2, 2 μM mRNA, 1× translation mix (20 mM Hepes-KOH pH 7.6, 100 mM creatine phosphate, 2 mM DTT, and 312.5 μM of each amino acid excluding methionine), ^35S-labeled methionine (Perkin Elmer; 20 μCi for each 25 μL of translation), and 60% (v/v) rabbit reticulocyte lysate. Radiolabeled peptides were purified using magnetic HA beads (Life Technologies) and eluted with 100 μL, 50 mM NaOH, then immediately neutralized with 20 μL of 1 M Tris-HCl, pH 8.0.
The radiolabeled peptides were allowed to bind to 30 pmol immobilized Bcl-xL for 1 hour in sample buffer (1×PBS, 1% (w/v) BSA, 0.1% (v/v) Tween 20, 10 μM biotin). The beads were magnetically separated, and washed 5× with sample buffer. The beads were resuspended in 1 mL of sample buffer containing 3 μM non-biotinylated Bcl-xL (˜100× molar excess relative to immobilized biotinylated Bcl-xL). At various time points, 100 μL of slurry was removed and the beads were magnetically separated and washed. The percent remaining at each time point was determined by dividing the counts per minute (cpm) on beads by total cpm (beads+washes). The peptide off-rate was determined by an exponential fit of the Percent counts on beads vs. Time (s).
The peptide ligands were made using a C-terminal HA tag, and affinity purified.

Bcl-xL [2] = molecular target: T1, Bcl-xL; assay: Equilibrium immunoassays (ELISA and AMMP data combined), Kd of ligands for Bcl-xL; assay type: binding; settings: for Kd: Kd Determined Using Known [L]0, Monovalent equilibrium model, ELISA and AMMP data; for Kd / Ratio of Fit [L]0 to Known [L]0: mean ± standard error; for Ratio of Fit [L]0 to Known [L]0: simultaneous fit of Kd and [L]0
Description: Sample Preparation. A set of serially diluted Bcl-xL standards, at 2× the desired concentration, were made in sample buffer. For each ligand to be tested (such as peptide ligands), a set of dilutions at 2× the desired concentration was also prepared. The Bcl-xL samples were either mixed 1:1 with sample buffer (standards) or ligands (samples), and allowed to incubate at room temperature for 6 days. After the incubation, the standards and samples were analyzed using ELISA or the ViBE BioAnalyzer (FIG. 1).
ELISA Assays. ELISA plates were incubated overnight at 4° C. with 1.5 nmol of streptavidin (for D1 or Bcl-xL capture ligands) or 54H6 mAb in 1×PBS. Plates were washed 3× with wash buffer (1×PBS+0.1% (v/v) Tween-20) and blocked with 1×PBS+5% (w/v) BSA for two hours. For the D1 or Bcl-xL capture ligands, 100 μL of a 30 nM solution of the reagents was added to wells and incubated for 1 hour. This step was skipped for the 54H6 mAb capture ligand (already immobilized on the plate). After the capture ligand incubation, 100 μL of sample or standards were added in each well, and incubated for 1 hour at room temperature. Plates were washed, incubated with HRP-conjugated probe antibody (such as anti-HIS tag antibody) in sample buffer for 1 hour, washed, and incubated with TMB substrate (Thermo Scientific). Reactions were stopped after approximately 10 minutes with 2 M sulfuric acid, and the absorbance at 450 nm was measured via a plate reader (Molecular Devices). The ligand of interest, capture ligand, target protein, and probe ligand used in example ELISA assays performed are highlighted in the table below.
AMMP Assays. For the AMMP assays, 90 μL of each sample or standards was incubated with 30 μL of magnetic beads (12 μg of beads/mL) and fluorescein-labeled antibody (8 nM) in sample buffer for 1 hour. The experiment's run buffer was 1×PBS+1% (v/v) Tween-20+1% (v/v) heat-treated FBS (Invitrogen; FBS was heat treated for 15 minutes at 65° C. and filtered). BioScale Universal Detection Cartridges were used in performing all of the assays. The device was used per the manufacturer's instructions. The ligand of interest, capture ligand, target protein, and probe ligand used in example AMMP assays performed are highlighted in the table below.
Monovalent and Divalent Analysis. The data for both sets of target concentrations were simultaneously fit for Kd (in the Kd only fit) or Kd and Mo. The data was fitted to the equilibrium model using the lowest absolute deviation method, by varying either only Kd or both Kd and [L]0 simultaneously. The monovalent assay fitting was done by Excel Solver (GRG Non-Lin method) using a set of five initial values. The set of values which provided the lowest error after the fitting were chosen as the final values. For the divalent assays, the fitting was performed by MATLAB's fminsearch function and a set of 10 initial values for Kd1, Kd2, and [L]0. […] For the divalent reverse assay, an extra parameter, Cf, was also determined by fitting (FIG. 7 Reverse Assay).
Enzymatic Kd Calculation Assay. The Kd values of ligands of interest were determined using a protocol modified from Friguet et al., Journal of immunological methods, 77, 305-319 (1985). The samples were prepared and analyzed by ELISA assay in a similar process as described above. The OD450 for the standards and their concentration values were fit to a four parameter logistic curve (standard curve). The concentration of the free Bcl-xL in solution (responsible for the signal) for each sample was calculated using the standard curve, and converted into percent of Bcl-xL bound by ligand in solution.

[3] = in vitro translated radiolabeled peptides with C-terminal HA tag, read-out: Peptide koff
[4] = radiolabeled peptide-mRNA fusions bound to immobilized Bcl-xL, read-out: koff

T1 sequence (Q07817 1-209 limits assumed): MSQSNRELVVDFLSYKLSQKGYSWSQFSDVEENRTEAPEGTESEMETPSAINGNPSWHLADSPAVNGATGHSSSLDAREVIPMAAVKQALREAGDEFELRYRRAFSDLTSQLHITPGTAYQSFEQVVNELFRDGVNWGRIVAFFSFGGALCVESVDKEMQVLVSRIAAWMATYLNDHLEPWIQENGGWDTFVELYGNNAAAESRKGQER

CC[C@H](C)[C@H](NC(=O)[C@H](C)NC(=O)[C@@H](NC(=O)[C@@H](N)CCSC)[C@@H](C)CC)C(=O)N[C@@H](CO)C(=O)N[C@H](C(=O)N[C@H](C(=O)N[C@@H](Cc1ccc(O)cc1)C(=O)N[C@@H](CC(N)=O)C(=O)N[C@@H](Cc1ccc(O)cc1)C(=O)N[C@@H](CCCCN)C(=O)N[C@@H](CCCCN)C(=O)N[C@@H](C)C(=O)N[C@@H](C)C(=O)N[C@@H](CC(=O)O)C(=O)N[C@@H](Cc1c[nH]cn1)C(=O)N[C@@H](Cc1ccc(O)cc1)C(=O)N[C@@H](C)C(=O)N[C@@H](CCSC)C(=O)N[C@H](C(=O)N[C@@H](CCCCN)C(=O)NCC(=O)N[C@@H](CO)C(=O)N[C@@H](CCCCNC(=O)CCCC[C@@H]1SC[C@@H]2NC(=O)N[C@@H]21)C(N)=O)[C@@H](C)O)[C@@H](C)CC)[C@@H](C)O [D1] (H-MIAISTIYNYKKAADHYAMTKGSK(Biotin)-NH2)
koff (Bcl-xL [1]; [3]): 2e-06 s⁻¹
koff (Bcl-xL [1]; [4]): 2e-06 s⁻¹
kon (Bcl-xL [2]): 240000 M⁻¹ s⁻¹
Kd (Bcl-xL [2]): 0.0085 ± 0.002 nM
Ratio of Fit [L]0 to Known [L]0 (Bcl-xL [2]): 109% ± 7%

CC[C@H](C)[C@H](NC(=O)[C@@H](NC(=O)[C@@H](NC(=O)[C@@H](NC(=O)[C@H](CCC(=O)O)NC(=O)[C@@H](NC(=O)[C@@H](N)CCSC)[C@@H](C)CC)[C@@H](C)O)[C@@H](C)CC)[C@@H](C)O)C(=O)N[C@@H](Cc1ccc(O)cc1)C(=O)N[C@@H](CC(N)=O)C(=O)N[C@@H](Cc1ccc(O)cc1)C(=O)N[C@@H](CCCCN)C(=O)N[C@@H](CCCCN)C(=O)N[C@@H](C)C(=O)N[C@@H](C)C(=O)N[C@@H](CC(=O)O)C(=O)N[C@@H](Cc1c[nH]cn1)C(=O)N[C@@H](Cc1ccccc1)C(=O)N[C@@H](CO)C(=O)N[C@@H](CCSC)C(=O)N[C@@H](CO)C(=O)N[C@@H](CCSC)C(=O)NCC(=O)N[C@@H](CO)C(=O)N[C@@H](CCCCNC(=O)CCCC[C@@H]1SC[C@@H]2NC(=O)N[C@@H]21)C(N)=O [E1] (H-MIETITIYNYKKAADHFSMSMGSK(Biotin)-NH2)
koff (Bcl-xL [1]; [3]): 7.4e-06 s⁻¹
koff (Bcl-xL [1]; [4]): 1.2e-05 s⁻¹
kon (Bcl-xL [2]): 310000 M⁻¹ s⁻¹
Kd (Bcl-xL [2]): 0.039 ± 0.006 nM
Ratio of Fit [L]0 to Known [L]0 (Bcl-xL [2]): 88% ± 10%
